From ChEMBL document CHEMBL3286108, “Novel arylsulfonamide derivatives with 5-HT₆/5-HT₇ receptor antagonism targeting behavioral and psychological symptoms of dementia” (J Med Chem, 2014)

Experiments:
[1] = target: 5-hydroxytryptamine receptor 2A (Homo sapiens, UniProt P28223); test: biochemical; format: cell-based, CHO-K1
[2] = target: 5-hydroxytryptamine receptor 6 (Homo sapiens, UniProt P50406); test: biochemical
[3] = target: T1, Muscarinic acetylcholine receptor M1 (Homo sapiens) (UniProt P11229); test: Displacement of [3H]pirenzepine from human recombinant M1 receptor expressed in CHO cells at 1 uM; format: cell-based
T1 sequence (whole entry): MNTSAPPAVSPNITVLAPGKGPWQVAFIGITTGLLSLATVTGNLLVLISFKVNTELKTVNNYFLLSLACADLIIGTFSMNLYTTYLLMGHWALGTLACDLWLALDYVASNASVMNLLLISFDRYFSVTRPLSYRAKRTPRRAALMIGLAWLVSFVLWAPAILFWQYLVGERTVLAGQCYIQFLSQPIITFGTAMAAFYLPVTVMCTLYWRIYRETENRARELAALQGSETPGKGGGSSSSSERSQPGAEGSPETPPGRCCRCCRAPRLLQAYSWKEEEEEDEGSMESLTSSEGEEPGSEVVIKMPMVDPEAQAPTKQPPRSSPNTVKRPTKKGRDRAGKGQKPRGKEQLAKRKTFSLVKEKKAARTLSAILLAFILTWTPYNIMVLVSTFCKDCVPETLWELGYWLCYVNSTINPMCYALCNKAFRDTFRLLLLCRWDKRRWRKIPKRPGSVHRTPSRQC

D(2) dopamine receptor = D(2) dopamine receptor (Homo sapiens, UniProt P14416); test: biochemical
[4] = target: 5-hydroxytryptamine receptor 7 (Homo sapiens, UniProt P34969); test: biochemical; format: cell-based, CHO-K1
[5] = target: hERG (KCNH2) potassium channel (Homo sapiens, UniProt Q12809); test: in vitro; conditions: CHO cells expressing human cloned ERG
Sequence of hERG (KCNH2) potassium channel (Q12809 whole entry): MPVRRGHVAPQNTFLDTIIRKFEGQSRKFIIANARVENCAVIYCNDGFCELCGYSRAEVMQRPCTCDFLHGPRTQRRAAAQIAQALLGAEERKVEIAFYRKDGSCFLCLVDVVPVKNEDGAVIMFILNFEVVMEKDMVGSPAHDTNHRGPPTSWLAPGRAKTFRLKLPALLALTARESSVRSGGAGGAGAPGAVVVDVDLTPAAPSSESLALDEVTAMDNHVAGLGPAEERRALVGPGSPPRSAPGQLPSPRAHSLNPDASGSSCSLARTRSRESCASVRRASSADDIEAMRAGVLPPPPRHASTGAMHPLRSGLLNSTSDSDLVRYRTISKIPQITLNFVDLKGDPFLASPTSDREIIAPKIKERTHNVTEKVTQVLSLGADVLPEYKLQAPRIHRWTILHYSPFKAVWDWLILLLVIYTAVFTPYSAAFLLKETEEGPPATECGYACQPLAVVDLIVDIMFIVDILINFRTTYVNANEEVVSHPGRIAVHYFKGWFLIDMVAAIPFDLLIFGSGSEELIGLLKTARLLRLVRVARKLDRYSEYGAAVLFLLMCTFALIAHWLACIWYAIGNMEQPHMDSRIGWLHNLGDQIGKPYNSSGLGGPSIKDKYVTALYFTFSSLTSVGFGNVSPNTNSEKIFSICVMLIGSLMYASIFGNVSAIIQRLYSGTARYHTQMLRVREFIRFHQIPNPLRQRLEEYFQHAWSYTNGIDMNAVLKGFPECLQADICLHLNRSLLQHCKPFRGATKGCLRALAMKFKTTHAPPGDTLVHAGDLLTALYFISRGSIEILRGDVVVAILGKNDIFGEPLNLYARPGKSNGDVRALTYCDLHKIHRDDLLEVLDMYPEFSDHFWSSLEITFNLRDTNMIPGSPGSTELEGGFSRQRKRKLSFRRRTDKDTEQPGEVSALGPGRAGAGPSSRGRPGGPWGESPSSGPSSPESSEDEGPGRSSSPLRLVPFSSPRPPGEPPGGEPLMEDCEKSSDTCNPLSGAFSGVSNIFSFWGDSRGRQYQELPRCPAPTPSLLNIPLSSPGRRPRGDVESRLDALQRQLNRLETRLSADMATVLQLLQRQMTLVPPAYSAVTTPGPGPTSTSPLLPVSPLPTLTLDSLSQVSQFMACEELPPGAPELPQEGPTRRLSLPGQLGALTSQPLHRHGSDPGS

Sequence of 5-hydroxytryptamine receptor 2A (P28223 whole entry): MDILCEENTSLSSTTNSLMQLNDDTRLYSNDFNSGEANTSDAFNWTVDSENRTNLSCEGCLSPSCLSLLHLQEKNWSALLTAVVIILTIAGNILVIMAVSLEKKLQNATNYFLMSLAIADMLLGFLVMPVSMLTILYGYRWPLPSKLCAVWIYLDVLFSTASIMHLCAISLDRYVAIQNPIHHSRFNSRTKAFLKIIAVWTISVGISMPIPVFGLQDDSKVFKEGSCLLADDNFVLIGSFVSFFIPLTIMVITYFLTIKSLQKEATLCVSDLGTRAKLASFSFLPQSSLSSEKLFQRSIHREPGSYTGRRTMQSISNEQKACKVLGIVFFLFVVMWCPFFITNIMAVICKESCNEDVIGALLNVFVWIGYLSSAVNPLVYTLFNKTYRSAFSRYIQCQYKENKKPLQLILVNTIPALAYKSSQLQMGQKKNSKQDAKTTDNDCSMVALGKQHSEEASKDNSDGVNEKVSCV
Sequence of 5-hydroxytryptamine receptor 7 (P34969 whole entry): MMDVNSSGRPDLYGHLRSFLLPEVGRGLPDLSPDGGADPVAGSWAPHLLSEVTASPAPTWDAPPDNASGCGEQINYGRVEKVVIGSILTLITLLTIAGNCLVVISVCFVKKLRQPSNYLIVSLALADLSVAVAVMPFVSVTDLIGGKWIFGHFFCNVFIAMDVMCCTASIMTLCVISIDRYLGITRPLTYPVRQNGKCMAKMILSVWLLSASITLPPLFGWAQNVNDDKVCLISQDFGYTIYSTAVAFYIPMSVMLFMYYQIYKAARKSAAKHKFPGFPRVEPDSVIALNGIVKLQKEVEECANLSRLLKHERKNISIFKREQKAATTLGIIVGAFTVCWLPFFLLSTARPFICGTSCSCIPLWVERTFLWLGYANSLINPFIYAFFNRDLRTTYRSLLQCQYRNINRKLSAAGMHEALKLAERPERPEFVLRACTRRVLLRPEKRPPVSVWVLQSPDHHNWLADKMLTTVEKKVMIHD
Sequence of 5-hydroxytryptamine receptor 6 (P50406 whole entry): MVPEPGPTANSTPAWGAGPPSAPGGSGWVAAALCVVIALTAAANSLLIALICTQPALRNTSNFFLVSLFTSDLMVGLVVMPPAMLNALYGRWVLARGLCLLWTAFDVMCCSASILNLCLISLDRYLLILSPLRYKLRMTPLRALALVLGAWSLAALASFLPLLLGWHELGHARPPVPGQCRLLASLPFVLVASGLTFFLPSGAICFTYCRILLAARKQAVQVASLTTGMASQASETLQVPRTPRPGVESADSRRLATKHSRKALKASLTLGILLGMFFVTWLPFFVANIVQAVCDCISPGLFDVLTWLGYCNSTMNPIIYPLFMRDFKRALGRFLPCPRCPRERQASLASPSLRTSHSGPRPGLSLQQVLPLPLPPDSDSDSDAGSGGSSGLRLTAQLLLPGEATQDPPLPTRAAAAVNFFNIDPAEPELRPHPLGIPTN
Sequence of D(2) dopamine receptor (P14416 whole entry): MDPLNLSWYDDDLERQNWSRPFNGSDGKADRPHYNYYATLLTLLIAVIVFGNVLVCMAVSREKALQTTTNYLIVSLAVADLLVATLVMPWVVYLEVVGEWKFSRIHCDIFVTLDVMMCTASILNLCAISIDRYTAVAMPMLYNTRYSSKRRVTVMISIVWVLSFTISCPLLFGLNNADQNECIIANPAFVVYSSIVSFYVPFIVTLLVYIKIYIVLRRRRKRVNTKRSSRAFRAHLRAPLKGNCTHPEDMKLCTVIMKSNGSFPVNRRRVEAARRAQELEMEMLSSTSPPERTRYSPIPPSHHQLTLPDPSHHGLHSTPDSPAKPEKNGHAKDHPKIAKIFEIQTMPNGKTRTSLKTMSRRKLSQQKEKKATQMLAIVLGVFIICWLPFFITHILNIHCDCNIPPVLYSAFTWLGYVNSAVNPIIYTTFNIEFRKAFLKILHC

Compound: O=S(=O)(NCCCCN1CCN(c2noc3ccccc23)CC1)c1cccs1
- Ki [1]: 2700 nM
- Ki [2]: 5200 nM
- inhibition [3]: 3%
- Ki (D(2) dopamine receptor): 5.3 nM
- Ki [4]: 67 nM
- inhibition at 1 µM [5]: 39%

Compound: Cc1c(S(=O)(=O)NCCCN2CCN(c3noc4ccccc34)CC2)sc2ccc(F)cc12
- Ki [1]: 1200 nM
- Ki [2]: > 10000 nM
- Ki (D(2) dopamine receptor): > 10000 nM
- Ki [4]: 200 nM
- inhibition at 1 µM [5]: 15%

Compound: O=S(=O)(NCCCCN1CCN(c2nsc3ccccc23)CC1)c1cccs1
- Ki [1]: 5.5 nM
- Ki [2]: 42 nM
- inhibition [3]: 1%
- Ki (D(2) dopamine receptor): 3.2 nM
- Ki [4]: 3.2 nM
- inhibition at 1 µM [5]: 40%

Compound: O=S(=O)(NCCCCN1CCN(c2noc3ccccc23)CC1)c1ccc(Cl)c(Cl)c1
- Ki [1]: 10 nM
- Ki [2]: 29 nM
- Ki (D(2) dopamine receptor): 57 nM
- Ki [4]: 0.7 nM
- inhibition at 1 µM [5]: 24%

Compound: Cc1cccc(S(=O)(=O)NCCCCN2CCC(c3noc4cc(F)ccc34)CC2)c1
- Ki [1]: 2.1 nM
- Ki [2]: 140 nM
- inhibition [3]: 11%
- Ki (D(2) dopamine receptor): 17 nM
- Ki [4]: 1.5 nM
- inhibition at 1 µM [5]: 57%

Compound: O=S(=O)(NCCCCN1CCN(c2nsc3ccccc23)CC1)c1ccc(Cl)c(Cl)c1
- Ki [1]: 12 nM
- Ki [2]: 71 nM
- inhibition [3]: 7%
- Ki (D(2) dopamine receptor): 27 nM
- Ki [4]: 6.9 nM
- inhibition at 1 µM [5]: 45%

Compound: O=S(=O)(NCCCN1CCN(c2noc3ccccc23)CC1)c1ccc(OC(F)(F)F)cc1
- Ki [1]: 950 nM
- Ki [2]: 2200 nM
- inhibition [3]: 3%
- Ki (D(2) dopamine receptor): 63 nM
- Ki [4]: 380 nM
- inhibition at 1 µM [5]: 10%

Compound: O=S(=O)(NCCCCN1CCC(c2noc3cc(F)ccc23)CC1)c1ccc(OC(F)(F)F)cc1
- Ki [1]: 3.6 nM
- Ki [2]: 23 nM
- inhibition [3]: -6%
- Ki (D(2) dopamine receptor): 64 nM
- Ki [4]: 15 nM
- inhibition at 1 µM [5]: 73%

Compound: O=S(=O)(NCCCCN1CCN(c2noc3ccccc23)CC1)c1cccc2scnc12
- Ki [1]: 6100 nM
- Ki [2]: > 10000 nM
- Ki (D(2) dopamine receptor): 170 nM
- Ki [4]: 57 nM
- inhibition at 1 µM [5]: 26%

Compound: O=S(=O)(NCCCCN1CCN(c2noc3ccccc23)CC1)c1ccc(F)c(Cl)c1
- Ki [1]: 17 nM
- Ki [2]: 27 nM
- inhibition [3]: 6%
- Ki (D(2) dopamine receptor): 77 nM
- Ki [4]: 0.1 nM
- inhibition at 1 µM [5]: 45%

Compound: O=S(=O)(NCCCCN1CCC(c2noc3cc(F)ccc23)CC1)c1cnc2ccccn12
- Ki [1]: 9.5 nM
- Ki [2]: 100 nM
- inhibition [3]: 37%
- Ki (D(2) dopamine receptor): > 1000 nM
- Ki [4]: 14 nM
- inhibition at 1 µM [5]: 47%

Compound: O=S(=O)(NCCCCN1CCN(c2noc3ccccc23)CC1)c1ccc2cc(Cl)ccc2c1
- Ki [1]: 7.7 nM
- Ki [2]: 18 nM
- Ki (D(2) dopamine receptor): 51 nM
- Ki [4]: 6.7 nM
- inhibition at 1 µM [5]: 9%

Compound: O=S(=O)(NCCCCN1CCN(c2nsc3ccccc23)CC1)c1ccc(F)c(Cl)c1
- Ki [1]: 15 nM
- Ki [2]: 53 nM
- inhibition [3]: -10%
- Ki (D(2) dopamine receptor): 39 nM
- Ki [4]: 5.3 nM
- inhibition at 1 µM [5]: 29%

Compound: O=S(=O)(NCCCN1CCC(c2noc3cc(F)ccc23)CC1)c1cc2ccccc2s1
- Ki [1]: 0.9 nM
- Ki [2]: 40 nM
- inhibition [3]: 13%
- Ki (D(2) dopamine receptor): 11 nM
- Ki [4]: 4.1 nM
- inhibition at 1 µM [5]: 34%

Compound: O=S(=O)(NCCCN1CCC(c2noc3cc(F)ccc23)CC1)c1cccs1
- Ki [1]: 5.1 nM
- Ki [2]: 66 nM
- Ki (D(2) dopamine receptor): 8.7 nM
- Ki [4]: 0.9 nM
- inhibition at 1 µM [5]: 53%

Compound: O=S(=O)(NCCCN1CCN(c2nsc3ccccc23)CC1)c1cc2ccc(Cl)cc2s1
- Ki [1]: 9.5 nM
- Ki [2]: 110 nM
- inhibition [3]: -6%
- Ki [4]: 54 nM
- inhibition at 1 µM [5]: 0%

Compound: O=S(=O)(NCCCCN1CCC(c2noc3cc(F)ccc23)CC1)c1cccc2scnc12
- Ki [1]: 8.5 nM
- Ki [2]: 70 nM
- Ki (D(2) dopamine receptor): 25 nM
- Ki [4]: 13 nM
- inhibition at 1 µM [5]: 69%

Compound: O=S(=O)(NCCCN1CCN(c2nsc3ccccc23)CC1)c1cc2ccccc2s1
- Ki [1]: 11 nM
- Ki [2]: 63 nM
- Ki (D(2) dopamine receptor): 48 nM
- Ki [4]: 13 nM
- inhibition at 1 µM [5]: 12%

Compound: O=S(=O)(NCCCCN1CCN(c2nsc3ccccc23)CC1)c1ccc2cc(Cl)ccc2c1
- Ki [1]: 8.1 nM
- Ki [2]: 61 nM
- Ki (D(2) dopamine receptor): 49 nM
- Ki [4]: 33 nM
- inhibition at 1 µM [5]: 12%

Compound: O=S(=O)(NCCCCN1CCC(c2noc3cc(F)ccc23)CC1)c1cccs1
- Ki [1]: 9.5 nM
- Ki [2]: 130 nM
- inhibition [3]: 24%
- Ki (D(2) dopamine receptor): > 1000 nM
- Ki [4]: 6.3 nM
- inhibition at 1 µM [5]: 53%

Compound: O=S(=O)(NCCN1CCC(c2noc3cc(F)ccc23)CC1)c1cccc2ccccc12
- Ki [1]: 0.7 nM
- Ki [2]: 250 nM
- inhibition [3]: -8%
- Ki (D(2) dopamine receptor): 9.1 nM
- Ki [4]: 1.3 nM
- inhibition at 1 µM [5]: 0%

Compound: Cc1cccc(S(=O)(=O)NCCCN2CCN(c3noc4ccccc34)CC2)c1
- Ki [1]: 4200 nM
- Ki [2]: 1500 nM
- Ki (D(2) dopamine receptor): 2000 nM
- Ki [4]: 10 nM
- inhibition at 1 µM [5]: 8%

Compound: O=S(=O)(NCCCCN1CCC(c2noc3cc(F)ccc23)CC1)c1ccc(Cl)c(Cl)c1
- Ki [1]: 4.9 nM
- Ki [2]: 26 nM
- inhibition [3]: 27%
- Ki (D(2) dopamine receptor): 15 nM
- Ki [4]: 5.1 nM
- inhibition at 1 µM [5]: 82%

Compound: O=S(=O)(NCCCN1CCN(c2nsc3ccccc23)CC1)c1ccc(Cl)c(Cl)c1
- Ki [1]: 25 nM
- Ki [2]: 15 nM
- Ki (D(2) dopamine receptor): 7.8 nM
- Ki [4]: 20 nM
- inhibition at 1 µM [5]: 21%

Compound: O=S(=O)(NCCCCN1CCN(c2noc3ccccc23)CC1)c1ccc(OC(F)(F)F)cc1
- Ki [1]: 210 nM
- Ki [2]: 4800 nM
- Ki (D(2) dopamine receptor): 400 nM
- Ki [4]: 270 nM
- inhibition at 1 µM [5]: 24%

Compound: O=S(=O)(NCCCN1CCN(c2noc3ccccc23)CC1)c1cccs1
- Ki [1]: 970 nM
- Ki [2]: > 10000 nM
- inhibition [3]: 4%
- Ki [4]: 94 nM
- inhibition at 1 µM [5]: 18%

Compound: O=S(=O)(NCCCN1CCN(c2nsc3ccccc23)CC1)c1ccc(F)c(Cl)c1
- Ki [1]: 14 nM
- Ki [2]: 5.1 nM
- Ki (D(2) dopamine receptor): 37 nM
- Ki [4]: 9.5 nM
- inhibition at 1 µM [5]: 36%

Compound: O=S(=O)(NCCN1CCN(c2nsc3ccccc23)CC1)c1ccc2ccccc2c1
- Ki [1]: 0.9 nM
- Ki [2]: 680 nM
- Ki (D(2) dopamine receptor): 18 nM
- Ki [4]: 1.5 nM
- inhibition at 1 µM [5]: 0%

Compound: O=S(=O)(NCCCN1CCN(c2nsc3ccccc23)CC1)c1cccs1
- Ki [1]: 9.1 nM
- Ki [2]: 140 nM
- Ki (D(2) dopamine receptor): 56 nM
- Ki [4]: 23 nM
- inhibition at 1 µM [5]: 33%

Compound: O=S(=O)(NCCCCN1CCN(c2nsc3ccccc23)CC1)c1ccc(OC(F)(F)F)cc1
- Ki [1]: 2.2 nM
- Ki [2]: 47 nM
- Ki (D(2) dopamine receptor): 48 nM
- Ki [4]: 19 nM
- inhibition at 1 µM [5]: 20%

Compound: Cc1cccc(S(=O)(=O)NCCCN2CCN(c3nsc4ccccc34)CC2)c1
- Ki [1]: 1.3 nM
- Ki [2]: 22 nM
- Ki (D(2) dopamine receptor): 13 nM
- Ki [4]: 1.7 nM
- inhibition at 1 µM [5]: 14%

Compound: O=S(=O)(NCCCN1CCC(c2noc3cc(F)ccc23)CC1)c1ccc(OC(F)(F)F)cc1
- Ki [1]: 3.8 nM
- Ki [2]: 35 nM
- Ki (D(2) dopamine receptor): 33 nM
- Ki [4]: 8.8 nM
- inhibition at 1 µM [5]: 87%

Compound: O=S(=O)(NCCCN1CCN(c2nsc3ccccc23)CC1)c1ccc(OC(F)(F)F)cc1
- Ki [1]: 9.5 nM
- Ki [2]: 56 nM
- Ki (D(2) dopamine receptor): 27 nM
- Ki [4]: 29 nM
- inhibition at 1 µM [5]: 50%

Compound: Cc1cccc(S(=O)(=O)NCCN2CCN(c3nsc4ccccc34)CC2)c1
- Ki [1]: 8.8 nM
- Ki [2]: 430 nM
- Ki (D(2) dopamine receptor): 43 nM
- Ki [4]: 3.8 nM
- inhibition at 1 µM [5]: 4%
